Experimental data from PubChem BioAssay AID248 (DTP/NCI, 2004).
“And” between values parts separate entries of the source, which are not always exact repeats. Equal values may be shown once. Toxic doses and inconclusive results are not listed. No stated cut-off is given here; in the data, active means T/C of 150% or more; inactive means T/C below 125%.

System: L1210 leukemia ip in BDF1 mice, survival T/C
Assay: NCI In Vivo Anticancer Drug Screen. Data for tumor model L1210 Leukemia (intraperitoneal) in B6D2F1 (BDF1) mice
Conditions: endpoint: mean survival time, higher = longer survival
Summary of the method: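 Tumor was transplanted into mice, which were then dosed with test compound or vehicle alone. Survival was recorded for each group, and the treated figure was expressed relative to the control figure.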

[1] = dose: 50.0 mg/kg/injection, schedule: Q01DX009 (ip), vehicle: saline
[2] = dose: 100.0 mg/kg/injection, schedule: Q01DX001 (ip), vehicle: saline
[3] = dose: 100.0 mg/kg/injection, schedule: Q01DX009 (ip), vehicle: saline
[4] = dose: 100.0 mg/kg/injection, schedule: Q04DX003 (ip), vehicle: saline
[5] = dose: 200.0 mg/kg/injection, schedule: Q01DX001 (ip), vehicle: saline
[6] = dose: 200.0 mg/kg/injection, schedule: Q01DX009 (ip), vehicle: saline
[7] = dose: 200.0 mg/kg/injection, schedule: Q04DX003 (ip), vehicle: saline
[8] = dose: 400.0 mg/kg/injection, schedule: Q01DX001 (ip), vehicle: saline
[9] = dose: 400.0 mg/kg/injection, schedule: Q04DX003 (ip), vehicle: saline
[10] = dose: 50.0 mg/kg/injection, schedule: Q04DX003 (ip), vehicle: saline
[11] = dose: 200.0 mg/kg/injection, schedule: Q04DX003 (ip), vehicle: saline with Tween-80
[12] = dose: 400.0 mg/kg/injection, schedule: Q04DX003 (ip), vehicle: saline with Tween-80
[13] = dose: 100.0 mg/kg/injection, schedule: Q01DX001 (ip), vehicle: carboxymethylcellulose (CMC)
[14] = dose: 200.0 mg/kg/injection, schedule: Q01DX001 (ip), vehicle: carboxymethylcellulose (CMC)
[15] = dose: 100.0 mg/kg/injection, schedule: Q01DX009 (ip), vehicle: Klucel (hydroxypropylcellulose) (HPC)
[16] = dose: 25.0 mg/kg/injection, schedule: Q01DX009 (ip), vehicle: Klucel (hydroxypropylcellulose) (HPC)

Measured: T/C

CN(N=O)C(=O)NCCc1ccc(OC(=O)N(C)N=O)cc1
inactive: dose: 0.78 mg/kg/injection, schedule: Q01DX Z (ip), vehicle: carboxymethylcellulose (CMC) 98 % of control | dose: 1.56 mg/kg/injection, schedule: Q01DX Z (ip), vehicle: carboxymethylcellulose (CMC) 110 % of control | dose: 3.12 mg/kg/injection, schedule: Q01DX Z (ip), vehicle: carboxymethylcellulose (CMC) 95 % of control | dose: 6.25 mg/kg/injection, schedule: Q01DX Z (ip), vehicle: carboxymethylcellulose (CMC) 113 % of control | dose: 12.5 mg/kg/injection, schedule: Q01DX Z (ip), vehicle: carboxymethylcellulose (CMC) 118 % of control | dose: 25.0 mg/kg/injection, schedule: Q01DX Z (ip), vehicle: carboxymethylcellulose (CMC) 124 % of control | dose: 50.0 mg/kg/injection, schedule: Q01DX Z (ip), vehicle: carboxymethylcellulose (CMC) 91 % of control

COC(=O)/C=C(\C)Nc1ccc(-c2ccccc2)cc1
inactive: [1] 103 % of control | [2] 97 % of control | [3] 102 % of control | [4] 101 % of control | [5] 95 % of control | [6] 100 % of control | [7] 97 % of control | [8] 92 % of control | [9] 97 % of control

O/N=C(/C(=N/O)c1ccccc1)c1ccccc1.O/N=C(/C(=N/O)c1ccccc1)c1ccccc1.[Cl][Rh][Cl]
inactive: [1] 94 % of control | [10] 95 % of control | [3] 89 % of control | [4] 95 % of control | [6] 95 % of control | [7] 94 % of control | dose: 400.0 mg/kg/injection, schedule: Q01DX009 (ip), vehicle: saline 97 % of control | [9] 94 % of control

C[C@]12CC[C@@H]3c4ccc(O)cc4CC[C@H]3[C@@H]1C[C@H](O)C2
inactive: dose: 100.0 mg/kg/injection, schedule: Q01DX001 (sc), vehicle: steriod suspending solution 98 % of control | dose: 100.0 mg/kg/injection, schedule: Q04DX003 (sc), vehicle: steriod suspending solution 96 % of control | dose: 200.0 mg/kg/injection, schedule: Q01DX001 (sc), vehicle: steriod suspending solution 102 % of control | dose: 200.0 mg/kg/injection, schedule: Q04DX003 (sc), vehicle: steriod suspending solution 104 % of control | dose: 400.0 mg/kg/injection, schedule: Q01DX001 (sc), vehicle: steriod suspending solution 105 % of control | dose: 400.0 mg/kg/injection, schedule: Q04DX003 (sc), vehicle: steriod suspending solution 94 % of control

O=S1(=O)CCNNCC1
inactive: dose: 37.5 mg/kg/injection, schedule: Q01DX009 (ip), vehicle: saline 100 % of control | dose: 75.0 mg/kg/injection, schedule: Q01DX009 (ip), vehicle: saline 109 % of control | dose: 150.0 mg/kg/injection, schedule: Q01DX009 (ip), vehicle: saline 105 % of control | dose: 300.0 mg/kg/injection, schedule: Q01DX009 (ip), vehicle: saline 103 % of control

CCCCCCCCCCCCCCCCNS(=O)(=O)c1ccc2sc(SC)nc2c1
inactive: [11] 90 % of control | [12] 90 % of control

CNC(=O)Oc1c(C)occc1=O
inactive: dose: 75.0 mg/kg/injection, schedule: Q01DX009 (ip), vehicle: other 100 % of control | dose: 75.0 mg/kg/injection, schedule: Q01DX009 (ip), vehicle: saline with Tween-80 103 % of control | [2] 106 % of control | dose: 135.0 mg/kg/injection, schedule: Q01DX009 (ip), vehicle: other 111 % of control | dose: 150.0 mg/kg/injection, schedule: Q01DX009 (ip), vehicle: other 104 % of control | dose: 150.0 mg/kg/injection, schedule: Q01DX009 (ip), vehicle: saline with Tween-80 111 % of control | [5] 101 % of control | dose: 200.0 mg/kg/injection, schedule: Q01DX009 (ip), vehicle: other 108 % of control | dose: 300.0 mg/kg/injection, schedule: Q01DX009 (ip), vehicle: other 116 % of control | dose: 300.0 mg/kg/injection, schedule: Q01DX009 (ip), vehicle: saline with Tween-80 106 % of control | [8] 105 % of control

Nc1ccc(Nc2cc(S(=O)(=O)O)c(N)c3c2C(=O)c2ccccc2C3=O)cc1
inactive: [2] 97 % of control | [8] 93 % of control

CCOC(=O)/C=C/Oc1cc(Cl)c(Cl)cc1Cl
inactive: dose: 100.0 mg/kg/injection, schedule: Q01DX009 (ip), vehicle: saline with Tween-80 110 % of control | dose: 200.0 mg/kg/injection, schedule: Q01DX009 (ip), vehicle: saline with Tween-80 92 % of control | dose: 400.0 mg/kg/injection, schedule: Q01DX009 (ip), vehicle: saline with Tween-80 93 % of control

O=P(c1ccccc1)(N1CC1)N1CC1
inactive: dose: 7.5 mg/kg/injection, schedule: Q04DX003 (ip), vehicle: saline 100 % of control | dose: 15.0 mg/kg/injection, schedule: Q01DX001 (ip), vehicle: saline 102 % of control | dose: 15.0 mg/kg/injection, schedule: Q04DX003 (ip), vehicle: saline 95 % of control | dose: 30.0 mg/kg/injection, schedule: Q01DX001 (ip), vehicle: saline 107 % of control | dose: 30.0 mg/kg/injection, schedule: Q04DX003 (ip), vehicle: saline 98 % of control

O=C(O)c1ccc2c(c1)C(=O)c1cc([N+](=O)[O-])ccc1-2
inactive: [13] 102 % of control | [14] 102 % of control

COC(=O)C(C)C(=O)OC
inactive: dose: 100.0 mg/kg/injection, schedule: Q01DX009 (ip), vehicle: acetone 93 % of control | dose: 100.0 mg/kg/injection, schedule: Q04DX003 (ip), vehicle: acetone 107 % of control | dose: 200.0 mg/kg/injection, schedule: Q01DX009 (ip), vehicle: acetone 97 % of control | dose: 200.0 mg/kg/injection, schedule: Q04DX003 (ip), vehicle: acetone 97 % of control | dose: 400.0 mg/kg/injection, schedule: Q01DX009 (ip), vehicle: acetone 93 % of control | dose: 400.0 mg/kg/injection, schedule: Q04DX003 (ip), vehicle: acetone 94 % of control

CCNC(=O)Nc1ccc(C)cc1
inactive: [13] 105 % of control | [14] 97 % of control | dose: 400.0 mg/kg/injection, schedule: Q01DX001 (ip), vehicle: carboxymethylcellulose (CMC) 103 % of control

Cc1nc(N)[nH]c(=O)c1CCCN=Cc1ccccc1
inactive: [15] 101 % of control | dose: 200.0 mg/kg/injection, schedule: Q01DX009 (ip), vehicle: Klucel (hydroxypropylcellulose) (HPC) 92 % of control | dose: 400.0 mg/kg/injection, schedule: Q01DX009 (ip), vehicle: Klucel (hydroxypropylcellulose) (HPC) 95 % of control

COc1ccc(C)cc1NC(=S)NC(=O)C(C)Oc1ccccc1 (centres undefined)
inactive: [16] 95 % of control | dose: 50.0 mg/kg/injection, schedule: Q01DX009 (ip), vehicle: Klucel (hydroxypropylcellulose) (HPC) 93 % of control | [15] 101 % of control and 91 % of control | dose: 100.0 mg/kg/injection, schedule: Q04DX003 (ip), vehicle: Klucel (hydroxypropylcellulose) (HPC) 97 % of control | dose: 200.0 mg/kg/injection, schedule: Q04DX003 (ip), vehicle: Klucel (hydroxypropylcellulose) (HPC) 103 % of control | dose: 400.0 mg/kg/injection, schedule: Q04DX003 (ip), vehicle: Klucel (hydroxypropylcellulose) (HPC) 97 % of control

CC(C)/C(=N\Nc1ccc([N+](=O)[O-])cc1[N+](=O)[O-])c1ccccc1
inactive: dose: 100.0 mg/kg/injection, schedule: Q04DX003 (ip), vehicle: saline with Tween-80 96 % of control | [11] 106 % of control | [12] 100 % of control

CC[N+](CC)(CC)Cc1ccccc1
inactive: dose: 6.25 mg/kg/injection, schedule: Q01DX009 (ip), vehicle: Klucel (hydroxypropylcellulose) (HPC) 104 % of control | dose: 6.25 mg/kg/injection, schedule: Q04DX003 (ip), vehicle: saline 113 % of control | dose: 12.5 mg/kg/injection, schedule: Q01DX009 (ip), vehicle: Klucel (hydroxypropylcellulose) (HPC) 107 % of control | dose: 12.5 mg/kg/injection, schedule: Q04DX003 (ip), vehicle: saline 97 % of control | dose: 25.0 mg/kg/injection, schedule: Q01DX001 (ip), vehicle: saline 96 % of control and 100 % of control | [16] 98 % of control and 100 % of control | dose: 25.0 mg/kg/injection, schedule: Q04DX003 (ip), vehicle: saline 97 % of control and 100 % of control | dose: 50.0 mg/kg/injection, schedule: Q01DX001 (ip), vehicle: saline 98 % of control and 102 % of control | [10] 98 % of control
